Results published in PubChem BioAssay (NCI).
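Five concentrations, 48 hours, 96-well plates. GI50 marks 50% less growth. The concentration for full growth arrest is given as TGI.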

How the values were obtained:
Experiment in all cases: NCI anticancer screen, dose series, 48 h
ACHN renal = test system: ACHN renal
HCT-15 colon = test system: HCT-15 colon
HOP-62 NSCLC = test system: HOP-62 NSCLC
MALME-3M melanoma = test system: MALME-3M melanoma
NCI/ADR-RES ovarian = test system: NCI/ADR-RES ovarian
PC-3 prostate = test system: PC-3 prostate
SF-539 CNS = test system: SF-539 CNS
SK-MEL-5 melanoma = test system: SK-MEL-5 melanoma
T-47D breast = test system: T-47D breast
U251 CNS = test system: U251 CNS

Compound	TGI (ACHN renal) [µM]	TGI (HCT-15 colon) [µM]	TGI (HOP-62 NSCLC) [µM]	TGI (MALME-3M melanoma) [µM]	TGI (NCI/ADR-RES ovarian) [µM]	TGI (PC-3 prostate) [µM]	TGI (SF-539 CNS) [µM]	TGI (SK-MEL-5 melanoma) [µM]	TGI (T-47D breast) [µM]	TGI (U251 CNS) [µM]	GI50 (ACHN renal) [µM]	GI50 (HCT-15 colon) [µM]	GI50 (HOP-62 NSCLC) [µM]	GI50 (MALME-3M melanoma) [µM]	GI50 (NCI/ADR-RES ovarian) [µM]	GI50 (PC-3 prostate) [µM]	GI50 (SF-539 CNS) [µM]	GI50 (SK-MEL-5 melanoma) [µM]	GI50 (T-47D breast) [µM]	GI50 (U251 CNS) [µM]
COC(=O)[C@@H]1O[C@]12[C@@H](CO[Si](C)(C)C(C)(C)C)O[C@@H](n1cc(C)c(=O)[nH]c1=O)[C@@H]2O[Si](C)(C)C(C)(C)C	33	17.3	70.7	43.4	33.8	55.7	75.3	38.5	27.3	24.7	–	–	–	–	–	–	–	–	–	–
c1cc2ccc1CNCCN1CCNCc3ccc(cc3)Oc3ccc(cc3)CNCCN(CCNCc3ccc(cc3)O2)CCNCc2ccc(cc2)Oc2ccc(cc2)CNCC1	15.5	20.1	2.96	3.13	63.5	1.24	2.76	5.19	3.61	1.99	3.88	4.62	1.51	1.66	16.7	0.358	1.44	2.26	1.63	0.682
